Laboratory results as given in patent US11484557B2, “Human-derived Lactobacillus fermentum MG4231 or Lactobacillus fermentum MG4244 strain having anti-obesity activity, and composition comprising same” (MEDIOGEN CO., LTD., priority 2018, dated 2022).

System: 3T3-L1 preadipocytes
Test: Inhibition of preadipocyte differentiation, Oil Red O lipid accumulation
Type: cell-based
Conditions: positive control, 100 μM baicalin
Description: In order to select a strain having excellent obesity prevention and treatment effects among the strains obtained in the Example 1, an experiment was conducted to identify the ability thereof to inhibit differentiation of preadipocytes into adipocytes. To induce the differentiation of 3T3-L1 preadipocytes, the preadipocytes were dispensed into each 96-well plate at 1.25×10^5 cells/well. After 2 days, the medium was changed so that the cells were completely fused on the 4th day. MDI (0.5 mM 3-isobutyl-1-methylxanthine), 1 μM dexamethasone and 1 μg/mL of insulin solution added to 10% FBS DMEM medium. Subsequently, in the experimental group, the culture supernatant of the strain obtained in Example 1 was added to the medium at a concentration of 1,000 μg/mL. […] Adipocyte differentiation was completed after 6 days, and the amount of lipid accumulated in the cell was measured using Oil Red 0 (Sigma, USA), which reacts specifically with the lipid drop generated in the cell. […] For quantification, distilled water was removed, isopropyl alcohol was added to a completely dry well, and then, absorbance was measured at 520 nm. Then, a degree of inhibition of adipocyte differentiation ability was analyzed by comparing the produced lipid drop content with that of the MDI treatment group based on the measured absorbance.

O=C(O)[C@H]1O[C@@H](Oc2cc3oc(-c4ccccc4)cc(=O)c3c(O)c2O)[C@H](O)[C@@H](O)[C@@H]1O [baicalin]
relative lipid content: 81.40%
